Assay results taken from patent US9314446B2, “Sustained releasing pharmaceutical composition” (priority 2013, dated 2016).

Experiment: In-vitro release of diclofenac (dialysis bag, PBS, absorbance 300 nm)
Type: physicochemical
Details: 1 mg/ml, PBS 37° C.
Description: In-vitro experiment on agent release of hydrogel is designed to simulate its in-vivo effect. The 500 μg/ml latanoprost-loaded solution were added to the transwell (100 μl/well) mounted on 24-well plates, and 1.5 ml PBS was added in each well and then incubated at 37° C. The 1.5 ml PBS was collected and another 1.5 ml PBS was then replenished at each time (Days 1, 7, 14 and 28). The amount of latanoprost was analyzed by a LC-MS/MS system equipped with an electrospray ionization source. The LC-MS/MS consisted of a Sciex API 3000 tandem mass spectrometer and Agilent 1100 series LC system. Separation of latanoprost was achieved by using a Phenomenex Luna C18 column (particle size 5 um, 50 mm×4.6 mm i.d.). The mobile phase consisted of latanoprost was (A) 0.1% (v/v) formic acid and (B) acetonitrile containing 0.1% formic acid (A:B=7:3, v/v) and delivered at 0.3 ml per minute. The mass spectrometer was operated in positive mode which used multiple reaction monitoring. The precursor to produce ion transition of m/z 374.2→195.2 was monitored. In another experiment, the dialysis bags with molecular weight cut-off of 1 kD were used to retain the diclofenac-loaded hydrogel and allow the released diclofenac to permeate into the release medium (PBS). Briefly, 800 μl diclofenac-loaded hydrogel (1 mg/ml) or diclofenac only (1 mg/ml) was added to a dialysis bag. The sample-loaded dialysis bag was immersed in 30 ml of PBS at 100 rpm and 37° C. At fixed time intervals, the release medium was collected and replaced with an equal amount of PBS. According to the absorption curve of diclofenac, the diclofenac content of the each sample was analyzed by Tecan's Infinite® M 1000 spectrophotometer at the wavelength of 300 nm. […] The percentage of cumulative release at 1, 7, 14 and 28 days were 1.34±0.33, 26.80±5.40, 45.03±2.55 and 67.72±4.25%, respectively. Additives in hydrogel affect its composition, structure and may also change its drug releasing characteristics. […] The percentage of cumulative release of 1 mg/ml diclofenac only group at 5, 18, 24, 48, 75 and 140 hours was 106.08±10.48, 99.34±6.57, 106.62±13.76, 102.28±7.40, 105.75±5.76 and 112.14±7.05%.

cumulative release of diclofenac (5 hours): 106.08±10.48%
cumulative release of diclofenac (18 hours): 99.34±6.57%
cumulative release of diclofenac (24 hours): 106.62±13.76%
cumulative release of diclofenac (48 hours): 102.28±7.40%
cumulative release of diclofenac (75 hours): 105.75±5.76%
cumulative release of diclofenac (140 hours): 112.14±7.05%
SMILES: O=C(O)Cc1ccccc1Nc1c(Cl)cccc1Cl [diclofenac]
